Assay results as given in PubChem BioAssay (NCI).
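1) Cells in 96-well plates. 2) Compound, 48 h, 5 concentrations. 3) Linear interpolation between surrounding doses. 4) Unreached endpoint = highest concentration. At the GI50, growth is halved. TGI: total growth inhibition.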

Legend:
Experiment in all cases: DTP human tumour cell line panel, 48 h
786-0 renal = test system: 786-0 renal
A498 renal = test system: A498 renal
A549 NSCLC = test system: A549 NSCLC
ACHN renal = test system: ACHN renal
BT-549 breast = test system: BT-549 breast
CAKI-1 renal = test system: CAKI-1 renal
CCRF-CEM leukemia = test system: CCRF-CEM leukemia
COLO 205 colon = test system: COLO 205 colon
DU-145 prostate = test system: DU-145 prostate
EKVX NSCLC = test system: EKVX NSCLC
HCC-2998 colon = test system: HCC-2998 colon
HCT-116 colon = test system: HCT-116 colon
HCT-15 colon = test system: HCT-15 colon
HL-60(TB) leukemia = test system: HL-60(TB) leukemia
HOP-62 NSCLC = test system: HOP-62 NSCLC
HOP-92 NSCLC = test system: HOP-92 NSCLC
HS 578T breast = test system: HS 578T breast
HT29 colon = test system: HT29 colon
IGROV1 ovarian = test system: IGROV1 ovarian
K-562 leukemia = test system: K-562 leukemia
KM12 colon = test system: KM12 colon
LOX IMVI melanoma = test system: LOX IMVI melanoma
MALME-3M melanoma = test system: MALME-3M melanoma
MCF7 breast = test system: MCF7 breast
MDA-MB-231 breast = test system: MDA-MB-231 breast
MOLT-4 leukemia = test system: MOLT-4 leukemia
NCI-H226 lung = test system: NCI-H226 lung
NCI-H23 lung = test system: NCI-H23 lung
NCI-H460 lung = test system: NCI-H460 lung
NCI-H522 lung = test system: NCI-H522 lung
OVCAR-3 ovarian = test system: OVCAR-3 ovarian
OVCAR-4 ovarian = test system: OVCAR-4 ovarian
OVCAR-5 ovarian = test system: OVCAR-5 ovarian
OVCAR-8 ovarian = test system: OVCAR-8 ovarian
PC-3 prostate = test system: PC-3 prostate
RPMI-8226 leukemia = test system: RPMI-8226 leukemia
RXF 393 renal = test system: RXF 393 renal
SF-268 CNS = test system: SF-268 CNS
SF-295 CNS = test system: SF-295 CNS
SF-539 CNS = test system: SF-539 CNS
SK-MEL-28 melanoma = test system: SK-MEL-28 melanoma
SK-MEL-5 melanoma = test system: SK-MEL-5 melanoma
SK-OV-3 ovarian = test system: SK-OV-3 ovarian
SN12C renal = test system: SN12C renal
SNB-19 CNS = test system: SNB-19 CNS
SNB-75 CNS = test system: SNB-75 CNS
SR leukemia = test system: SR leukemia
SW-620 colon = test system: SW-620 colon
T-47D breast = test system: T-47D breast
TK-10 renal = test system: TK-10 renal
U251 CNS = test system: U251 CNS
UACC-257 melanoma = test system: UACC-257 melanoma
UACC-62 melanoma = test system: UACC-62 melanoma
UO-31 renal = test system: UO-31 renal

SMILES: NC(=Nc1ccc(OCCCCCCCCn2ccnn2)cc1)c1ccccc1
- GI50 (786-0 renal): 643 nM
- TGI (786-0 renal): > 44100 nM
- GI50 (A498 renal): 4750 nM
- TGI (A498 renal): 28400 nM
- GI50 (A549 NSCLC): 458 nM
- TGI (A549 NSCLC): > 46300 nM
- GI50 (ACHN renal): 714 nM
- TGI (ACHN renal): 24700 nM
- GI50 (BT-549 breast): 656 nM
- TGI (BT-549 breast): 12200 nM
- GI50 (CAKI-1 renal): 260 nM
- TGI (CAKI-1 renal): 21000 nM
- GI50 (CCRF-CEM leukemia): 271 nM
- TGI (CCRF-CEM leukemia): 19400 nM
- GI50 (COLO 205 colon): 238 nM
- TGI (COLO 205 colon): 1140 nM
- GI50 (DU-145 prostate): 446 nM
- TGI (DU-145 prostate): 24600 nM
- GI50 (EKVX NSCLC): 286 nM
- TGI (EKVX NSCLC): > 40900 nM
- GI50 (HCC-2998 colon): 535 nM
- TGI (HCC-2998 colon): 11200 nM
- GI50 (HCT-116 colon): 325 nM
- TGI (HCT-116 colon): 12700 nM
- GI50 (HCT-15 colon): 236 nM
- TGI (HCT-15 colon): 22900 nM
- GI50 (HL-60(TB) leukemia): 239 nM
- TGI (HL-60(TB) leukemia): 2900 nM
- GI50 (HOP-62 NSCLC): 466 nM
- TGI (HOP-62 NSCLC): 15000 nM
- GI50 (HOP-92 NSCLC): 1200 nM
- TGI (HOP-92 NSCLC): 28800 nM
- GI50 (HS 578T breast): 271 nM
- TGI (HS 578T breast): 7440 nM
- GI50 (HT29 colon): 293 nM
- TGI (HT29 colon): 884 nM
- GI50 (IGROV1 ovarian): 564 nM
- TGI (IGROV1 ovarian): 16800 nM
- GI50 (K-562 leukemia): 144 nM
- TGI (K-562 leukemia): > 56000 nM
- GI50 (KM12 colon): 269 nM
- TGI (KM12 colon): 19000 nM
- GI50 (LOX IMVI melanoma): 482 nM
- TGI (LOX IMVI melanoma): 13100 nM
- GI50 (MALME-3M melanoma): 300 nM
- TGI (MALME-3M melanoma): 15900 nM
- GI50 (MCF7 breast): 124 nM
- TGI (MCF7 breast): 18800 nM
- GI50 (MDA-MB-231 breast): 557 nM
- TGI (MDA-MB-231 breast): 12700 nM
- GI50 (MOLT-4 leukemia): 585 nM
- TGI (MOLT-4 leukemia): > 49600 nM
- GI50 (NCI-H226 lung): 853 nM
- TGI (NCI-H226 lung): 12100 nM
- GI50 (NCI-H23 lung): 458 nM
- TGI (NCI-H23 lung): 17900 nM
- GI50 (NCI-H460 lung): 208 nM
- TGI (NCI-H460 lung): 10300 nM
- GI50 (NCI-H522 lung): 207 nM
- TGI (NCI-H522 lung): 1900 nM
- GI50 (OVCAR-3 ovarian): 126 nM
- TGI (OVCAR-3 ovarian): 5000 nM
- GI50 (OVCAR-4 ovarian): 4260 nM
- TGI (OVCAR-4 ovarian): > 62900 nM
- GI50 (OVCAR-5 ovarian): 432 nM
- TGI (OVCAR-5 ovarian): 17300 nM
- GI50 (OVCAR-8 ovarian): 462 nM
- TGI (OVCAR-8 ovarian): 3970 nM
- GI50 (PC-3 prostate): 337 nM
- TGI (PC-3 prostate): > 44900 nM
- GI50 (RPMI-8226 leukemia): 404 nM
- TGI (RPMI-8226 leukemia): 17800 nM
- GI50 (RXF 393 renal): 304 nM
- TGI (RXF 393 renal): 6290 nM
- GI50 (SF-268 CNS): 1170 nM
- TGI (SF-268 CNS): 25400 nM
- GI50 (SF-295 CNS): 204 nM
- TGI (SF-295 CNS): 11500 nM
- GI50 (SF-539 CNS): 239 nM
- TGI (SF-539 CNS): 870 nM
- GI50 (SK-MEL-28 melanoma): 662 nM
- TGI (SK-MEL-28 melanoma): 22900 nM
- GI50 (SK-MEL-5 melanoma): 157 nM
- TGI (SK-MEL-5 melanoma): 1720 nM
- GI50 (SK-OV-3 ovarian): 532 nM
- TGI (SK-OV-3 ovarian): 32800 nM
- GI50 (SN12C renal): 495 nM
- TGI (SN12C renal): 16100 nM
- GI50 (SNB-19 CNS): 757 nM
- TGI (SNB-19 CNS): > 49900 nM
- GI50 (SNB-75 CNS): 163 nM
- TGI (SNB-75 CNS): 29200 nM
- GI50 (SR leukemia): 606 nM
- TGI (SR leukemia): > 100000 nM
- GI50 (SW-620 colon): 148 nM
- TGI (SW-620 colon): > 40800 nM
- GI50 (T-47D breast): 449 nM
- TGI (T-47D breast): 34400 nM
- GI50 (TK-10 renal): 3000 nM
- TGI (TK-10 renal): 45000 nM
- GI50 (U251 CNS): 427 nM
- TGI (U251 CNS): 28800 nM
- GI50 (UACC-257 melanoma): 952 nM
- TGI (UACC-257 melanoma): 18500 nM
- GI50 (UACC-62 melanoma): 215 nM
- TGI (UACC-62 melanoma): 13100 nM
- GI50 (UO-31 renal): 565 nM
- TGI (UO-31 renal): 19900 nM
